# ChEMBL document CHEMBL3046027, “In vitro and in vivo antifungal activity of synthetic pure isothiocyanates against Sclerotinia sclerotiorum” (Pest Manag Sci, 2011)
# pEC50: −log10 of the molar value.
# Experiments:
# Sclerotinia sclerotiorum [1] = test: In vivo antifungal Sclerotinia sclerotiorum in Pepper (Capsicum annuum L. cv. Sera Demre) assessed as inhibition of mycelial growth in volatile phase at 150 umol/L measured after 10 to 14 weeks; assay type: functional
# Sclerotinia sclerotiorum [2] = test: In vivo antifungal Sclerotinia sclerotiorum in Pepper (Capsicum annuum L. cv. Sera Demre) assessed as inhibition of mycelial growth in volatile phase at 75 umol/L measured after 10 to 14 weeks; assay type: functional
# Sclerotinia sclerotiorum [3] = test: Antifungal activity against Sclerotinia sclerotiorum assessed as inhibition of mycelial growth in volatile phase at 751 umol/l measured at 20 degC after 5 days; assay type: functional; settings: 120 h, read-out: GI
# Sclerotinia sclerotiorum [4] = test: Antifungal activity against Sclerotinia sclerotiorum assessed as inhibition of mycelial growth in volatile phase at 525 umol/l measured at 20 degC after 5 days; assay type: functional; settings: 120 h, read-out: GI
# Sclerotinia sclerotiorum [5] = test: Antifungal activity against Sclerotinia sclerotiorum assessed as inhibition of mycelial growth in volatile phase at 375 umol/l measured at 20 degC after 5 days; assay type: functional; settings: 120 h, read-out: GI
# Sclerotinia sclerotiorum [6] = test: Antifungal activity against Sclerotinia sclerotiorum assessed as inhibition of mycelial growth in volatile phase at 75 umol/l measured at 20 degC after 5 days; assay type: functional; settings: 120 h, read-out: GI
# Sclerotinia sclerotiorum [7] = test: Antifungal activity against Sclerotinia sclerotiorum assessed as inhibition of mycelial growth in volatile phase at 38 umol/l measured at 20 degC after 5 days; assay type: functional; settings: 120 h, read-out: GI
# Sclerotinia sclerotiorum [8] = test: Antifungal activity against Sclerotinia sclerotiorum assessed as inhibition of mycelial growth in contact phase at 2252 umol/l measured at 20 degC after 5 days; assay type: functional; settings: 120 h, read-out: GI
# Sclerotinia sclerotiorum [9] = test: Antifungal activity against Sclerotinia sclerotiorum assessed as inhibition of mycelial growth in contact phase at 1501 umol/l measured at 20 degC after 5 days; assay type: functional; settings: 120 h, read-out: GI
# Sclerotinia sclerotiorum [10] = test: Antifungal activity against Sclerotinia sclerotiorum assessed as inhibition of mycelial growth in contact phase at 751 umol/l measured at 20 degC after 5 days; assay type: functional; settings: 120 h, read-out: GI
# Sclerotinia sclerotiorum [11] = test: Antifungal activity against Sclerotinia sclerotiorum assessed as inhibition of mycelial growth in contact phase at 676 umol/l measured at 20 degC after 5 days; assay type: functional; settings: 120 h, read-out: GI
# Sclerotinia sclerotiorum [12] = test: Antifungal activity against Sclerotinia sclerotiorum assessed as inhibition of mycelial growth in contact phase at 525 umol/l measured at 20 degC after 5 days; assay type: functional; settings: 120 h, read-out: GI
# Sclerotinia sclerotiorum [13] = test: Fungistatic activity in Sclerotinia sclerotiorum assessed as inhibition of carpogenic germination in volatile phase at 75 umol/l measured at 20 degC after 5 days relative to control; assay type: functional; settings: 120 h
# Sclerotinia sclerotiorum [14] = test: Fungistatic activity in Sclerotinia sclerotiorum assessed as inhibition of carpogenic germination in volatile phase at 38 umol/l measured at 20 degC after 5 days relative to control; assay type: functional; settings: 120 h
# Sclerotinia sclerotiorum [15] = test: Fungistatic activity in Sclerotinia sclerotiorum assessed as inhibition of carpogenic germination in volatile phase at 751 umol/l measured at 20 degC after 5 days relative to control; assay type: functional; settings: 120 h
# Sclerotinia sclerotiorum [16] = test: Fungistatic activity in Sclerotinia sclerotiorum assessed as inhibition of carpogenic germination in volatile phase at 375 umol/l measured at 20 degC after 5 days relative to control; assay type: functional; settings: 120 h
# Sclerotinia sclerotiorum [17] = test: Fungistatic activity in Sclerotinia sclerotiorum assessed as sclerotial viability measured at 20 degC after 5 days; assay type: functional, organism-based; settings: 120 h
# Sclerotinia sclerotiorum [18] = test: Fungistatic activity in Sclerotinia sclerotiorum assessed as inhibition of mycelial growth in volatile phase measured at 20 degC after 5 days; assay type: functional, organism-based; settings: 120 h
# Sclerotinia sclerotiorum [19] = test: Fungistatic activity in Sclerotinia sclerotiorum assessed as inhibition of mycelial growth in contact phase measured at 20 degC after 5 days; assay type: functional, organism-based; settings: 120 h
# Sclerotinia sclerotiorum [20] = test: Fungitoxic activity in Sclerotinia sclerotiorum assessed as viability in volatile phase at 225 umol/l measured at 20 degC after 5 days relative to control; assay type: functional; settings: 120 h, read-out: GI
# Sclerotinia sclerotiorum [21] = test: Fungitoxic activity in Sclerotinia sclerotiorum assessed as inhibition of mycelial growth in contact phase at 2252 umol/l measured at 20 degC after 5 days relative to control; assay type: functional; settings: 120 h, read-out: GI
# Sclerotinia sclerotiorum [22] = test: Fungistatic activity in Sclerotinia sclerotiorum assessed as inhibition of mycelial growth in contact phase at 1501 umol/l measured at 20 degC after 5 days relative to control; assay type: functional; settings: 120 h, read-out: GI
# Sclerotinia sclerotiorum [23] = test: Fungitoxic activity in Sclerotinia sclerotiorum assessed as inhibition of mycelial growth in volatile phase at 751 umol/l measured at 20 degC after 5 days relative to control; assay type: functional; settings: 120 h, read-out: GI
# Sclerotinia sclerotiorum [24] = test: Antifungal activity against Sclerotinia sclerotiorum assessed as inhibition of germination in volatile phase at 225 umol/l measured at 20 degC after 5 days; assay type: functional; settings: 120 h
# Sclerotinia sclerotiorum [25] = test: Antifungal activity against Sclerotinia sclerotiorum assessed as inhibition of germination in volatile phase at 75 umol/l measured at 20 degC after 5 days; assay type: functional; settings: 120 h
# Sclerotinia sclerotiorum [26] = test: Antifungal activity against Sclerotinia sclerotiorum assessed as inhibition of germination in volatile phase at 38 umol/l measured at 20 degC after 5 days; assay type: functional; settings: 120 h
# Sclerotinia sclerotiorum [27] = test: Fungistatic activity in Sclerotinia sclerotiorum assessed as inhibition of mycelial growth in volatile phase at 525 umol/l measured at 20 degC after 5 days relative to control; assay type: functional; settings: 120 h, read-out: GI
# Sclerotinia sclerotiorum [28] = test: Antifungal activity against Sclerotinia sclerotiorum assessed as inhibition of germination in volatile phase at 751 umol/l measured at 20 degC after 5 days; assay type: functional; settings: 120 h
# Sclerotinia sclerotiorum [29] = test: Antifungal activity against Sclerotinia sclerotiorum assessed as inhibition of germination in volatile phase at 375 umol/l measured at 20 degC after 5 days; assay type: functional; settings: 120 h
smiles,measurement,setting,value
S=C=NCc1ccccc1 [BENZYL ISOTHIOCYANATE],inhibition in vivo at 150 µM,Sclerotinia sclerotiorum [1],63.3%
same,inhibition in vivo at 75 µM,Sclerotinia sclerotiorum [2],36.7%
same,inhibition of growth at 751 µM,Sclerotinia sclerotiorum [3],100%
same,inhibition of growth at 525 µM,Sclerotinia sclerotiorum [4],100%
same,inhibition of growth at 375 µM,Sclerotinia sclerotiorum [5],78.2%
same,inhibition of growth at 75 µM,Sclerotinia sclerotiorum [6],71.2%
same,inhibition of growth at 38 µM,Sclerotinia sclerotiorum [7],35%
same,inhibition of growth at 2252 µM,Sclerotinia sclerotiorum [8],100%
same,inhibition of growth at 1501 µM,Sclerotinia sclerotiorum [9],100%
same,inhibition of growth at 751 µM,Sclerotinia sclerotiorum [10],100%
same,inhibition of growth at 676 µM,Sclerotinia sclerotiorum [11],37%
same,inhibition of growth at 525 µM,Sclerotinia sclerotiorum [12],5%
same,inhibition at 75 µM,Sclerotinia sclerotiorum [13],62.5%
same,inhibition at 38 µM,Sclerotinia sclerotiorum [14],55%
same,inhibition at 751 µM,Sclerotinia sclerotiorum [15],92.5%
same,inhibition at 375 µM,Sclerotinia sclerotiorum [16],72.5%
same,pEC50,Sclerotinia sclerotiorum [17],4.12
same,pEC50,Sclerotinia sclerotiorum [18],4.22
same,pEC50,Sclerotinia sclerotiorum [19],3.17
same,inhibition of growth at 225 µM,Sclerotinia sclerotiorum [20],100%
same,inhibition of growth at 2252 µM,Sclerotinia sclerotiorum [21],100%
same,inhibition of growth at 1501 µM,Sclerotinia sclerotiorum [22],100%
same,inhibition of growth at 751 µM,Sclerotinia sclerotiorum [23],100%
same,inhibition at 225 µM,Sclerotinia sclerotiorum [24],100%
same,inhibition at 75 µM,Sclerotinia sclerotiorum [25],53.3%
same,inhibition at 38 µM,Sclerotinia sclerotiorum [26],6.7%
same,inhibition of growth at 525 µM,Sclerotinia sclerotiorum [27],100%
same,inhibition at 751 µM,Sclerotinia sclerotiorum [28],100%
same,inhibition at 375 µM,Sclerotinia sclerotiorum [29],100%
